What was measured:
panel of 442 kinases [1] = molecular target: T1, panel of 442 kinases (Homo sapiens, UniProt P06241); assay type: binding; conditions: Compound Concentration 10 µM
T1 construct: purchased KINOMEscan
Source text: (§1) We assessed the selectivity of members of this scaffold using the KINOMEscan methodology across a near comprehensive panel of 442 kinases [[18,27]].

panel of 442 kinases [2] = molecular target: T2, panel of 442 kinases (Homo sapiens, UniProt O75385); assay type: binding; conditions: kinase ULK1; compound concentration 10 µM
T2 construct: purchased KINOMEscan
T2 sequence (O75385 1-1050): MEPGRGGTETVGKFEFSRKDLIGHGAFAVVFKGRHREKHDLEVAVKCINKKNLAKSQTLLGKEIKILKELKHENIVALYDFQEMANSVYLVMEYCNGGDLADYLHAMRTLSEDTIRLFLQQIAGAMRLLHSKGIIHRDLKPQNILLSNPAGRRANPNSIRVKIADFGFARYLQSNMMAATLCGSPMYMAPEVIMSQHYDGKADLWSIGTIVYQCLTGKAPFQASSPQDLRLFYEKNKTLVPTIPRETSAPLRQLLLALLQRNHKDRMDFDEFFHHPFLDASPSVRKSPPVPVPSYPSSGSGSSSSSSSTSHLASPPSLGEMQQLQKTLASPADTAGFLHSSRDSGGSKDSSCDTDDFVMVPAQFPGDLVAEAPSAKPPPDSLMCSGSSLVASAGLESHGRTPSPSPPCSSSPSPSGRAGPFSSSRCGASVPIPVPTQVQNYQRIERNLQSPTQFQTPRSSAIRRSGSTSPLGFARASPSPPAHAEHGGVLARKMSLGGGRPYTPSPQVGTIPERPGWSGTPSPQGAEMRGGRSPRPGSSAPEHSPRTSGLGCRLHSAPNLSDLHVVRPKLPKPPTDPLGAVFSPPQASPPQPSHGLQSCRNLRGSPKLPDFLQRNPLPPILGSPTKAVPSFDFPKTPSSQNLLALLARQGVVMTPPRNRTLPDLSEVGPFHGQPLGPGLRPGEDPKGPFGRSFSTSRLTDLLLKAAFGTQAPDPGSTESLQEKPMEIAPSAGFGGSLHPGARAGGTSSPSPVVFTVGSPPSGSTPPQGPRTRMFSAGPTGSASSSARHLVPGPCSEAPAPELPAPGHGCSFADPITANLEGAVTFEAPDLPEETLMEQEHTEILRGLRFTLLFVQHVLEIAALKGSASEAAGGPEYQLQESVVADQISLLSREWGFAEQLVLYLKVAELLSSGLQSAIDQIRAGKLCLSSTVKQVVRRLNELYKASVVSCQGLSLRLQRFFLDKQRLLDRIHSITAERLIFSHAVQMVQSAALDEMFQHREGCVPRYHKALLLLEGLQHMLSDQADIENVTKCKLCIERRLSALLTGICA
Source text: as §1

T1 sequence (P06241 whole entry): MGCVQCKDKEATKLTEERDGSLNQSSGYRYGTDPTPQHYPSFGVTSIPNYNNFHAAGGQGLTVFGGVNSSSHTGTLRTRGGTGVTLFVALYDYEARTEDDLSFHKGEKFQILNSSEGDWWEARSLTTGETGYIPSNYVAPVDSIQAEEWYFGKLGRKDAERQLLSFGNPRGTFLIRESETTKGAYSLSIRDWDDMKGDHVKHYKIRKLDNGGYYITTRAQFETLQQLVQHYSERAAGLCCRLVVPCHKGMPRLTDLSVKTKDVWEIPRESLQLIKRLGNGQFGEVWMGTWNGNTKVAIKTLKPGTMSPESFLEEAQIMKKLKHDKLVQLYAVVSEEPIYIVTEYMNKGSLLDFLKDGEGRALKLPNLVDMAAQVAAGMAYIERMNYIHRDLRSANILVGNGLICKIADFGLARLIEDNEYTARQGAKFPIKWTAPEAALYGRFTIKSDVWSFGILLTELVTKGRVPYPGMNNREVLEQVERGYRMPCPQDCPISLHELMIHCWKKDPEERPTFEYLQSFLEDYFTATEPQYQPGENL

SMILES | KINOMEscan: FYN (panel of 442 kinases [1]) | % Ctrl, ULK1 (panel of 442 kinases [2]) [% Ctrl]
COc1cc(C(=O)N2CCC(N3CCN(C)CC3)CC2)ccc1Nc1ncc2c(n1)N(C)c1ccccc1C(=O)N2C [15 (LRRK2-IN-1)] | 100 | 80
COc1cc(C(=O)N2CCC(N3CCN(C)CC3)CC2)ccc1Nc1ncc2c(n1)N1CCc3cccc(c31)C(=O)N2C [Compound 24] | 82 | 100
COc1cc(C(=O)N2CCC(N3CCN(C)CC3)CC2)ccc1Nc1ncc2c(n1)N(C1CCCC1)c1ccccc1C(=O)N2C [Compound 25, 11-cyclopentyl-2-((2-methoxy-4-(4-(4-methylpiperazin-1-yl)piperidine-1-carbonyl)phenyl)amino)-5-methyl-5H-benzo[e]pyrimido[5,4-b][1,4]diazepin-6(11H)-one] | 86 | 100
CCOc1cc(C(=O)N2CCC(N3CCN(C)CC3)CC2)ccc1Nc1ncc2c(n1)N(C1CCCC1)c1ccccc1C(=O)N2C [Compound 26] | 78 | 100

Source: article PMC3914206
